Laboratory results: ChEMBL document CHEMBL1142185, “Posaconazole enhances the activity of amphotericin B against Aspergillus hyphae in vitro” (2007)
Converted amounts (≈) assume the structure as drawn.

How the values were obtained:
Assay type in all cases: functional
Aspergillus fumigatus [1] = test: Antifungal activity against Aspergillus fumigatus conidia
Aspergillus terreus [2] = test: Antifungal activity against Aspergillus terreus conidia
Aspergillus flavus [3] = test: Antifungal activity against Aspergillus flavus conidia
Aspergillus niger [4] = test: Antifungal activity against Aspergillus niger conidia
Aspergillus fumigatus [5] = test: Antifungal activity against Aspergillus fumigatus hyphae
Aspergillus terreus [6] = test: Antifungal activity against Aspergillus terreus hyphae
Aspergillus flavus [7] = test: Antifungal activity against Aspergillus flavus hyphae
Aspergillus niger [8] = test: Antifungal activity against Aspergillus niger hyphae

| Structure (SMILES) | MIC90 (Aspergillus fumigatus [1]) [µg/mL] | MIC90 (Aspergillus terreus [2]) [µg/mL] | MIC90 (Aspergillus flavus [3]) [µg/mL] | MIC90 (Aspergillus niger [4]) [µg/mL] | MIC90 (Aspergillus fumigatus [5]) [µg/mL] | MIC90 (Aspergillus terreus [6]) [µg/mL] | MIC90 (Aspergillus flavus [7]) [µg/mL] | MIC90 (Aspergillus niger [8]) [µg/mL] |
| --- | --- | --- | --- | --- | --- | --- | --- | --- |
| C[C@@H](c1ncncc1F)[C@](O)(Cn1cncn1)c1ccc(F)cc1F [VORICONAZOLE] | 0.125 (≈ 0.358 µM) | 0.5 (≈ 1.43 µM) | 0.5 (≈ 1.43 µM) | 0.5 (≈ 1.43 µM) | 1 (≈ 2.86 µM) | 1 (≈ 2.86 µM) | 2 (≈ 5.73 µM) | 2 (≈ 5.73 µM) |
| CC[C@@H]([C@H](C)O)n1ncn(-c2ccc(N3CCN(c4ccc(OC[C@@H]5CO[C@@](Cn6cncn6)(c6ccc(F)cc6F)C5)cc4)CC3)cc2)c1=O [POSACONAZOLE] | 0.125 (≈ 0.178 µM) | 0.25 (≈ 0.357 µM) | 0.125 (≈ 0.178 µM) | 0.25 (≈ 0.357 µM) | 0.5 (≈ 0.713 µM) | 1 (≈ 1.43 µM) | 0.5 (≈ 0.713 µM) | 1 (≈ 1.43 µM) |
| C[C@@H]1[C@H](O)[C@@H](C)/C=C/C=C/C=C/C=C/C=C/C=C/C=C/[C@H](O[C@@H]2O[C@H](C)[C@@H](O)[C@H](N)[C@@H]2O)C[C@@H]2O[C@](O)(C[C@@H](O)C[C@@H](O)[C@H](O)CC[C@@H](O)C[C@@H](O)CC(=O)O[C@H]1C)C[C@H](O)[C@H]2C(=O)O [AMPHOTERICIN B] | 0.625 (≈ 0.676 µM) | 2.5 (≈ 2.71 µM) | 1.25 (≈ 1.35 µM) | 1.25 (≈ 1.35 µM) | 2.5 (≈ 2.71 µM) | 5 (≈ 5.41 µM) | 2.5 (≈ 2.71 µM) | 5 (≈ 5.41 µM) |
